# System: Human Cav2.3 channel
# Assay: Human Cav2.3 channel calcium-influx assay
# Type: cell-based
# Conditions: Fluo8 fluorescence, HEK-293 T-Rex/Kir2.1/Cav2.3e cells, without pluronic acid
# Method: HEK-293 T-Rex cells were transfected with pcDNA3.1-Kir2.1 to generate a stable cell line. After antibiotic selection, the obtained stable pools were analysed using FLIPR^TETRA (membrane potential assay), and a limiting dilution was performed and a HEK-293 T-Rex/Kir2.1 clone was selected. The clone was transfected with pcDNA3.1-Cav2.3e and pBud-Cav-β4-α2δ1 to generate a stable cell line where the Cav2.3e expression is inducible. After antibiotic selection, functional clone pool analysis and two successive limiting dilutions, the final clone underwent a qPCR analysis and a biophysical and pharmacological validation using patch-clamp.
# A compound plate, containing 10 test compounds in eight-points dose response with n=4, was prepared. Test compounds dose response curves were prepared in automated fashion in 100% DMSO at CyBio Felix and starting from a stock solution in 100% DMSO; a defined volume was serially moved into destination wells pre-filled with the desired DMSO volume; stock solution concentration volumes were dependent on the final compounds concentrations to be tested and the final DMSO content used in the assay. For the assay test compounds dose response curves ranged from 30 μM and half log dilution with 0.3% final DMSO. In order to obtain the 8-points dose response curve all the concentrations were created by starting from a 10 mM DMSO stock solution and then moving 9.5 μL into a destination well pre-filled with 20.5 μL of 100% DMSO and repeating this step seven times. This initial step was done into 96 MTP plates, 10 compounds/plate. One 384 MTP was then reformatted to contain all the 10 compounds at 8 concentrations, quadruplicate data points. This so obtained 384 MTP compound plate served as source plate in a “mother to child” process with a CyBi®-Well dispenser in which 0.7 μL of compounds were moved into a destination plate pre-filled with 57.6 μL of Tyrode's buffer 0 mM K+, thus obtaining 4× concentrated compounds solution. In columns 1-2 and 23-24 the control wells were added. Both “source” compound plate and “destination” compound plate were barcoded and a relationship between the two plates was thus generated.
# The day before the experiment, cells were detached by gentle wash with DPBS, followed by 5 min incubation at 37° C. with Trypsin solution. Detached cells were diluted with OptiMEM+Doxycycline at 0.2 μg/mL, counted and plated in Poly-D-Lysine coated black/clear bottom (15.000 c/well in 20 μl/well) by the use of a MATRIX WellMate dispenser. Plates were placed into a humidified incubator at 37° C. with 5% CO2 until the experimental day. 24 h after seeding 10 μL/well of 1.5× Fluo8 NW dye solution prepared in Tyrode's buffer 0 mM K* were added on top of the seeding medium. Cell plates were incubated for 40-60 min at RT in the dark. We then Injected off-line 10 μL/well of test compounds and controls 4× concentrated in Tyrode's Buffer 0 mM K+ with the CyBi®-Well instrument. Cell plates were incubated 3 minutes at RT. Finally, we injected 20 μL/well of 3× concentrated activator solution (K20-Na130-Ca2 buffer: 20 mM KCl, 130 mM NaCl, 2 mM CaCl2, 10 mM HEPES, 10 mM Glucose, final concentrations, prepared starting from “K0-Na150-Ca2” and “K150-Na0-Ca2” buffers) at FDSS7000EX instrument and read emitted fluorescence for 130 seconds.
# Data analysis was performed with Genedata Screener® software and reported compounds activity as % effect in relation to the normalization standards. The Kinetic Response Value (KRV) is calculated as follows:
# KRV=Maximal fluorescence recorded from second 5 to second 130 minus baseline fluorescence, computed as average from second 1 to second 2, of the kinetic trace. The KRV was normalized versus Neutral Controls and Inhibitor Controls in order to obtain the Activity[%] for each well. […] Therefore, the compound activity values were scaled (based on the two references) to a common range (two-point normalization). […]
row,Cav2.3 (pIC50),SMILES
1,5.38,"CCN([C@@H](c1ccc(C)cc1)C(F)(F)F)S(=O)(=O)c1cncc(C#N)c1 [Example 105, (S)-5-Cyano-N-ethyl-N-(2,2,2-trifluoro-1-(p-tolyl)ethyl)pyridine-3-sulfonamide]"
2,7.51,"CCN([C@H](c1ccc(C)cc1)C(F)(F)F)S(=O)(=O)c1cncc(C#N)c1 [Example 106, (R)-5-Cyano-N-ethyl-N-(2,2,2-trifluoro-1-(p-tolyl)ethyl)pyridine-3-sulfonamide]"
3,5.08,"CCN(C(c1ccccc1OC)C(F)(F)F)S(=O)(=O)c1cncc(C#N)c1 (stereo not shown) [Example 107, 5-Cyano-N-ethyl-N-(2,2,2-trifluoro-1-(2-methoxyphenyl)ethyl)pyridine-3-sulfonamide]"
4,4.30,"CCN([C@@H](c1ccccc1OC)C(F)(F)F)S(=O)(=O)c1cncc(C#N)c1 [Example 108, (S)-5-cyano-N-ethyl-N-(2,2,2-trifluoro-1-(2-methoxyphenyl)ethyl)pyridine-3-sulfonamide]"
5,4.59,"CCN([C@H](c1ccccc1OC)C(F)(F)F)S(=O)(=O)c1cncc(C#N)c1 [Example 109, (R)-5-cyano-N-ethyl-N-(2,2,2-trifluoro-1-(2-methoxyphenyl)ethyl)pyridine-3-sulfonamide]"
6,7.11,"CCN(C(c1cccc(F)c1)C(F)(F)F)S(=O)(=O)c1cncc(C#N)c1 (stereo not shown) [Example 110, 5-Cyano-N-ethyl-N-(2,2,2-trifluoro-1-(3-fluorophenyl)ethyl)pyridine-3-sulfonamide]"
7,7.63,"CCN([C@H](c1cccc(F)c1)C(F)(F)F)S(=O)(=O)c1cncc(C#N)c1 [Example 111, (R)-5-Cyano-N-ethyl-N-(2,2,2-trifluoro-1-(3-fluorophenyl)ethyl)pyridine-3-sulfonamide]"
8,5.95,"CCN([C@@H](c1cccc(F)c1)C(F)(F)F)S(=O)(=O)c1cncc(C#N)c1 [Example 112, (S)-5-cyano-N-ethyl-N-(2,2,2-trifluoro-1-(3-fluorophenyl)ethyl)pyridine-3-sulfonamide]"
9,6.96,"CCN(C(c1cccc(C)c1)C(F)(F)F)S(=O)(=O)c1cncc(C#N)c1 (stereo not shown) [Example 113, 5-Cyano-N-ethyl-N-(2,2,2-trifluoro-1-(m-tolyl)ethyl)pyridine-3-sulfonamide]"
10,6.87,"CCN([C@H](c1cccc(C)c1)C(F)(F)F)S(=O)(=O)c1cncc(C#N)c1 [Example 114, (R)-5-cyano-N-ethyl-N-(2,2,2-trifluoro-1-(m-tolyl)ethyl)pyridine-3-sulfonamide]"
11,5.44,"CCN([C@@H](c1cccc(C)c1)C(F)(F)F)S(=O)(=O)c1cncc(C#N)c1 [Example 115, (S)-5-cyano-N-ethyl-N-(2,2,2-trifluoro-1-(m-tolyl)ethyl)pyridine-3-sulfonamide]"
12,5.81,"CCN([C@H](c1ccccc1F)C(F)(F)F)S(=O)(=O)c1cncc(C#N)c1 [Example 116, (R)-5-Cyano-N-ethyl-N-(2,2,2-trifluoro-1-(2-fluorophenyl)ethyl)pyridine-3-sulfonamide]"
13,5.38,"CCN([C@@H](c1ccccc1F)C(F)(F)F)S(=O)(=O)c1cncc(C#N)c1 [Example 117, (S)-5-cyano-N-ethyl-N-(2,2,2-trifluoro-1-(2-fluorophenyl)ethyl)pyridine-3-sulfonamide]"
14,6.11,"CCN(C(c1ccc(OC)cc1)C(F)(F)F)S(=O)(=O)C1CCOCC1 (stereo not shown) [Example 124, N-ethyl-N-(2,2,2-trifluoro-1-(4-methoxyphenyl)ethyl)tetrahydro-2H-pyran-4-sulfonamide]"
15,5.37,"COc1ccc(C(N(C)S(=O)(=O)C2CCOCC2)C(F)(F)F)cc1 (stereo not shown) [Example 125, N-methyl-N-(2,2,2-trifluoro-1-(4-methoxyphenyl)ethyl)tetrahydro-2H-pyran-4-sulfonamide]"
16,5.12,"CN([C@@H](c1ccc(F)cc1)C(F)(F)F)S(=O)(=O)C1CCOCC1 [Example 131, (S)—N-methyl-N-(2,2,2-trifluoro-1-(4-fluorophenyl)ethyl)tetrahydro-2H-pyran-4-sulfonamide]"
17,6.05,"CN([C@H](c1ccc(F)cc1)C(F)(F)F)S(=O)(=O)C1CCOCC1 [Example 132, (R)—N-methyl-N-(2,2,2-trifluoro-1-(4-fluorophenyl)ethyl)tetrahydro-2H-pyran-4-sulfonamide]"
18,7.65,"CCN([C@H](c1ccc(Cl)cc1)C(F)(F)F)S(=O)(=O)c1cncnc1 [Example 134, (R)—N-(1-(4-chlorophenyl)-2,2,2-trifluoroethyl)-N-ethylpyrimidine-5-sulfonamide]"
19,6.76,"CCN(C(c1ccc(F)cc1)C(F)(F)F)S(=O)(=O)c1ccn2ccnc2c1 (stereo not shown) [Example 135, N-ethyl-N-(2,2,2-trifluoro-1-(4-fluorophenyl)ethyl)imidazo[1,2-a]pyridine-7-sulfonamide]"
20,6.78,"CCN([C@H](c1ccc(F)cc1)C(F)(F)F)S(=O)(=O)c1ccn2cnnc2c1 [Example 138, (R)—N-ethyl-N-(2,2,2-trifluoro-1-(4-fluorophenyl)ethyl)-[1,2,4]triazolo[4,3-a]pyridine-7-sulfonamide]"
21,6.31,"CCNc1nc2ccc(S(=O)(=O)N(CC)[C@H](c3ccc(F)cc3)C(F)(F)F)cc2s1 [Example 139, (R)—N-ethyl-2-(ethylamino)-N-(2,2,2-trifluoro-1-(4-fluorophenyl)ethyl)benzo[d]thiazole-6-sulfonamide]"
22,6.61,"CCN([C@H](c1ccc(F)cc1)C(F)(F)F)S(=O)(=O)c1cnc2cc[nH]c2c1 [Example 149, (R)—N-ethyl-N-(2,2,2-trifluoro-1-(4-fluorophenyl)ethyl)-1H-pyrrolo[3,2-b]pyridine-6-sulfonamide]"
23,6.51,"CCN([C@H](c1ccc(F)cc1)C(F)(F)F)S(=O)(=O)c1cc2nncn2cn1 [Example 152, (R)—N-ethyl-N-(2,2,2-trifluoro-1-(4-fluorophenyl)ethyl)-[1,2,4]triazolo[4,3-c]pyrimidine-7-sulfonamide]"
24,6.70,"CCN([C@H](c1ccc(F)cc1)C(F)(F)F)S(=O)(=O)c1ccc2nc(N)sc2c1 [Example 154, (R)-2-amino-N-ethyl-N-(2,2,2-trifluoro-1-(4-fluorophenyl)ethyl)benzo[d]thiazole-6-sulfonamide]"
25,6.33,"CCN([C@H](c1ccc(F)cc1)C(F)(F)F)S(=O)(=O)c1ccc2cn[nH]c2c1 [Example 159, (R)—N-ethyl-N-(2,2,2-trifluoro-1-(4-fluorophenyl)ethyl)-1H-indazole-6-sulfonamide]"
26,6.06,"CCN([C@H](c1ccc(F)cc1)C(F)(F)F)S(=O)(=O)c1ccc2cnn(C)c2c1 [Example 160, (R)—N-ethyl-1-methyl-N-(2,2,2-trifluoro-1-(4-fluorophenyl)ethyl)-1H-indazole-6-sulfonamide]"
27,6.22,"CN([C@H](c1ccc(F)cc1)C(F)(F)F)S(=O)(=O)c1ccc2cnn(C)c2c1 [Example 161, (R)—N,1-dimethyl-N-(2,2,2-trifluoro-1-(4-fluorophenyl)ethyl)-1H-indazole-6-sulfonamide]"
28,6.01,"CCN([C@H](c1ccc(F)cc1)C(F)(F)F)S(=O)(=O)c1ccc2c(c1)OC(F)(F)O2 [Example 162, (R)—N-ethyl-2,2-difluoro-N-(2,2,2-trifluoro-1-(4-fluorophenyl)ethyl)benzo[d][1,3]dioxole-5-sulfonamide]"

# Source: patent publication US20250115569A1, “SULFONAMIDE COMPOUNDS FOR THE TREATMENT OF NEUROLOGICAL CONDITIONS” (LARIO THERAPEUTICS LIMITED, priority 2021, published 2025)
